Results reported in patent US20240239811A1, “5-(5-(PIPERIDIN-4-YL)THIENO[3,2-C]PYRAZOL-2-YL]INDAZOLE DERIVATIVES AND RELATED COMPOUNDS AS MODULATORS FOR SPLICING NUCLEIC ACIDS AND FOR THE T” (REMIX THERAPEUTICS INC., priority 2020, published 2024).
Where a name gives a salt, the structure may show the parent alone.

Key:
Format in all cases: cell-based
HTT mRNA = assay: Splicing assay (RT-qPCR) monitoring HTT splice variants, canonical (CJ) and alternative (AJ) junction; conditions: 50% response, A673 or K562 cell line, 24 hours; for IC50: decrease in CJ mRNA; for AC50: increase in AJ mRNA
Protocol: (§1) Compounds described herein were used to modulate RNA transcript abundance in cells. The expression of a target mRNA was measured by detecting the formation of an exon-exon junction in the canonical transcript (CJ). A compound mediated exon-inclusion event was detected by observing an increase in formation of a new junction with an alternative exon (AJ). Real-time qPCR assays were used to detect these splicing switches and interrogate the potency of various compounds towards different target genes. A high-throughput real time quantitative PCR (RT-qPCR) assay was developed to measure these two isoforms of the mRNA (CJ and AJ) for an exemplary gene, HTT, together with a control housekeeping gene, GAPDH or GUSB or PPIA, used for normalization. Briefly, the A673 or K562 cell line was treated with various compounds described herein (e.g., compounds of Formula (I)). After treatment, the levels of the HTT mRNA targets were determined from each sample of cell lysate by cDNA synthesis followed by qPCR.
• Cells-to-CT 1-step kit: ThermoFisher A25602, Cells-to-CT lysis reagent: ThermoFisher 4391851C, TaqMan™ Fast Virus 1-Step Master Mix: ThermoFisher 4444436 • GAPDH: VIC-PL, ThermoFisher 4326317E (Assay: Hs99999905_ml)—used for K562/suspension cell lines • GUSB: VIC-PL, ThermoFisher 4326320E (Assay: Hs99999908_ml)—used for K562/suspension cell lines • PPIA: VIC-PL, ThermoFisher 4326316E (Assay: Hs99999904_ml)—used for A673/adherent cell lines
(§2) The A673 cell line was cultured in DMEM with 10% FBS. Cells were diluted with full growth media and plated in a 96-well plate (15,000 cells in 100ul media per well). The plate was incubated at 37° C. with 5% CO2 for 24 hours to allow cells to adhere. An 11-point 3-fold serial dilution of the compounds was made in DMSO then diluted in media in an intermediate plate. Compounds were transferred from the intermediate plate to the cell plate with the top dose at a final concentration of 10 uM in the well. Final DMSO concentration was kept at or below 0.25%. The cell plate was returned to the incubator at 37° C. with 5% CO2 for an additional 24 hours.
(§3) The K562 cell line was cultured in IMDM with 10% FBS. For K562, cells were diluted with full growth media and plated in either a 96-well plate (50,000 cells in 50 uL media per well) or a 384-well plate (8,000-40,000 cells in 45 uL media per well). An 11-point 3-fold serial dilution of the compounds were made in DMSO then diluted in media in an intermediate plate. Compound was transferred from the intermediate plate to the cell plate with the top dose at a final concentration of 10 uM in the well. Final DMSO concentration was kept at or below 0.25%. Final volume was 100 uL for 96-well plate and 50 uL for 384-well plate. The cell plate was then placed in an incubator at 37° C. with 5% CO2 for 24 hours.
The cells were then gently washed with 50 uL-100 uL cold PBS before proceeding to addition of lysis buffer. 30 uL-50 uL of room temperature lysis buffer with DNAse I (and optionally RNAsin) was added to each well. Cells were shaken/mixed thoroughly at room temperature for 5-10 minutes for lysis to take place and then 3 uL-5 uL of room temperature stop solution was added and wells were shaken/mixed again. After 2-5 minutes, the cell lysate plate was transferred to ice for RT-qPCR reaction setup. The lysates could also be frozen at −80° C. for later use.
In some cases, a direct lysis buffer was used. An appropriate volume of 3X lysis buffer (10 mM Tris, 150 mM NaCl, 1.5%-2.5% Igepal and 0.1-1 U/uL RNAsin, pH 7.4) was directly added to either K562 or A673 cells in media and mixed by pipetting 3 times. The plates were then incubated at room temperature with shaking/rocking for 20-50 minutes to allow for lysis to take place. After this time, the cell lysate plate was transferred to ice to set up for the RT-qPCR reactions. The lysates could also be frozen at −80° C. for later use. […]

Target C CJ mRNA = assay: Gene panel canonical junction qPCR assay, Target C; conditions: Table 6, decrease in CJ mRNA, read-out: Target C IC50 (decrease in CJ mRNA levels)
Protocol: as §1, §2, §3
(§4) The data analysis was performed by first determining the ΔCt vs the housekeeper gene. This ΔCt was then normalized against the DMSO control (ΔΔCt) and converted to RQ (relative quantification) using the 2^(−ΔΔCt) equation. The RQ were then converted to a percentage response by arbitrarily setting an assay window of 3.5 ΔCt for HTT-CJ and an assay window of 9 ΔCt for HTT-AJ. […] The percentage response was then fitted to the 4 parametric logistic equation to evaluate the concentration dependence of compound treatment. The increase in AJ mRNA is reported as AC50 (compound concentration having 50% response in AJ increase) while the decrease in CJ mRNA levels is reported as IC50 (compound concentration having 50% response in CJ decrease).
(§5) Additional studies were carried out for a larger panel of genes using the protocol provided above. The junction between flanking upstream and downstream exons was used to design canonical junction qPCR assays. At least one of the forward primer, reverse primer or the CY5-labeled 5′ nuclease probe (with 3′ quencher such as ZEN/Iowa Black FQ) was designed to overlap with the exon junction to capture the CJ mRNA transcript. BLAST was used to confirm the specificity of the probeset and parameters such as melting temperature, GC content, amplicon size, and primer dimer formation are considered during their design. Data for the decrease in CJ mRNA levels for three exemplary genes (HTT, SMN2, and Target C) analyzed in this panel are reported as IC50 (compound concentration having […] in CJ decrease).

SMN2 CJ mRNA = assay: Gene panel canonical junction qPCR assay, SMN2; conditions: Table 6, decrease in CJ mRNA, read-out: SMN2 IC50 (decrease in CJ mRNA levels)
Protocol: as §1, §2, §3, §4, §5

HTT CJ mRNA = assay: Gene panel canonical junction qPCR assay, HTT; conditions: Table 6, decrease in CJ mRNA, read-out: HTT IC50 (decrease in CJ mRNA levels)
Protocol: as §1, §2, §3, §4, §5

Structure (SMILES)	IC50 (HTT mRNA) [µM]	IC50 (Target C CJ mRNA) [µM]	IC50 (SMN2 CJ mRNA) [µM]	IC50 (HTT CJ mRNA) [µM]	AC50 (HTT mRNA) [µM]
Cn1cc2c(F)cc(-c3nc4sc(C5CCNCC5)cc4s3)cc2n1 [Compound 131, 4-fluoro-2-methyl-6-[5-(piperidin-4-yl)thieno[2,3-d][1,3]thiazol-2-yl]indazole]	1 to 10	1 to 10	1 to 10	1 to 10	1 to 10
Cc1nc2c(F)cc(-c3nc4sc(C5CCNCC5)cc4s3)cc2o1 [Compound 132, 4-fluoro-2-methyl-6-[5-(piperidin-4-yl)thieno[2,3-d][1,3]thiazol-2-yl]-1,3-benzoxazole]	< 0.1	0.1 to 1	< 0.1	< 0.1	< 0.1
Cc1cn2nc(-c3nc4sc(C5CCNCC5)cc4s3)cc2c(C)n1 [Compound 133, 4-(2-[4,6-dimethylpyrazolo[1,5-a]pyrazin-2-yl]thieno[2,3-d][1,3]thiazol-5-yl)piperidine]	0.1 to 1	0.1 to 1	0.1 to 1	0.1 to 1	0.1 to 1
Cn1cc2cc(-c3nc4sc(N5CCNCC5)cc4s3)cc(F)c2n1 [Compound 134, 7-fluoro-2-methyl-5-[5-(piperazin-1-yl)thieno[2,3-d][1,3]thiazol-2-yl]indazole]	0.1 to 1	0.1 to 1	< 0.1	0.1 to 1	< 0.1
CC1CN(c2cc3sc(-c4cc(F)c5nn(C)cc5c4)nc3s2)CCN1 (stereo not shown) [Compound 135, 7-fluoro-2-methyl-5-[5-(3-methylpiperazin-1-yl)thieno[2,3-d][1,3]thiazol-2-yl]indazole]	0.1 to 1	0.1 to 1	< 0.1	0.1 to 1	0.1 to 1
CCNC1CCN(c2cc3sc(-c4cc(F)c5nn(C)cc5c4)nc3s2)CC1 [Compound 137, N-ethyl-1-[2-(7-fluoro-2-methylindazol-5-yl)thieno[2,3-d][1,3]thiazol-5-yl]piperidin-4-amine]	0.1 to 1	0.1 to 1	< 0.1	0.1 to 1	0.1 to 1
Cc1cn2cc(-c3nc4sc(C5CCNCC5)cc4s3)cc(C)c2n1 [Compound 140, 4-(2-[2,8-dimethylimidazo[1,2-a]pyridin-6-yl]thieno[2,3-d][1,3]thiazol-5-yl)piperidine hydrochloride]	< 0.1	0.1 to 1	< 0.1	< 0.1	< 0.1
CN1CCN(c2cc3sc(-c4cc(F)c5nn(C)cc5c4)nc3s2)CC1 [Compound 141, 7-fluoro-2-methyl-5-[5-(4-methylpiperazin-1-yl)thieno[2,3-d][1,3]thiazol-2-yl]indazole]	0.1 to 1	1 to 10	< 0.1	0.1 to 1	0.1 to 1
Cn1cc2cc(-c3nc4sc(N5CCNC(C)(C)C5)cc4s3)cc(F)c2n1 [Compound 142, 5-[5-(3,3-dimethylpiperazin-1-yl)thieno[2,3-d][1,3]thiazol-2-yl]-7-fluoro-2-methylindazole]	0.1 to 1	1 to 10	< 0.1	0.1 to 1	0.1 to 1
CN1CCC(N(C)c2cc3sc(-c4cc(F)c5nn(C)cc5c4)nc3s2)CC1 [Compound 145, N-[2-(7-fluoro-2-methylindazol-5-yl)thieno[2,3-d][1,3]thiazol-5-yl]-N,1-dimethylpiperidin-4-amine]	> 10	> 10	0.1 to 1	> 10	> 10
CN1CC2(C1)CN(c1cc3sc(-c4cc(F)c5nn(C)cc5c4)nc3s1)C2 [Compound 146, 7-fluoro-2-methyl-5-(5-[6-methyl-2,6-diazaspiro[3.3]heptan-2-yl]thieno[2,3-d][1,3]thiazol-2-yl)indazole]	0.1 to 1	0.1 to 1	< 0.1	0.1 to 1	0.1 to 1

Further lines, with some results ahead:

IC50 (HTT mRNA) [µM]	IC50 (Target C CJ mRNA) [µM]	IC50 (SMN2 CJ mRNA) [µM]	IC50 (HTT CJ mRNA) [µM]	Structure (SMILES)	AC50 (HTT mRNA) [µM]
1 to 10	1 to 10	0.1 to 1	1 to 10	CC1CN(c2cc3sc(-c4cc(F)c5nn(C)cc5c4)nc3s2)CCN1C (stereo not shown) [Compound 128, 5-[5-(3,4-dimethylpiperazin-1-yl)thieno[2,3-d][1,3]thiazol-2-yl]-7-fluoro-2-methylindazole]	1 to 10
< 0.1	< 0.1	< 0.1	< 0.1	Cc1cn2cc(-c3nc4sc(C5CCNCC5)cc4s3)cc(F)c2n1 [Compound 130, 4-(2-[8-fluoro-2-methylimidazo[1,2-a]pyridin-6-yl]thieno[2,3-d][1,3]thiazol-5-yl)piperidine hydrochloride]	< 0.1
> 10	> 10	0.1 to 1	> 10	Cn1cc2cc(-c3nc4sc(N5CCNC6(CC6)C5)cc4s3)cc(F)c2n1 [Compound 136, 5-(5-[4,7-diazaspiro[2.5]octan-7-yl]thieno[2,3-d][1,3]thiazol-2-yl)-7-fluoro-2-methylindazole]	> 10
< 0.1	< 0.1	< 0.1	< 0.1	Cc1cn2cc(-c3nc4sc(C5CCNCC5)cc4s3)cc(Cl)c2n1 [Compound 139]	< 0.1
1 to 10	1 to 10	0.1 to 1	1 to 10	Cn1cc2cc(-c3nc4sc(N5CCC(NC(C)(C)C)C5)cc4s3)cc(F)c2n1 (stereo not shown) [Compound 143, N-tert-butyl-1-[2-(7-fluoro-2-methylindazol-5-yl)thieno[2,3-d][1,3]thiazol-5-yl]pyrrolidin-3-amine]	1 to 10
1 to 10	> 10	< 0.1	1 to 10	Cn1cc2cc(-c3nc4sc(N5CCN6CCCC6C5)cc4s3)cc(F)c2n1 (stereo not shown) [Compound 144, 7-fluoro-5-(5-[hexahydro-1H-pyrrolo[1,2-a]pyrazin-2-yl]thieno[2,3-d][1,3]thiazol-2-yl)-2-methylindazole]	0.1 to 1
